Tests used:
TLR7 = target: T1, TLR7 (Homo sapiens, UniProt Q9NYK1); experiment: Reporter gene assay, HEK-Blue TLR7 reporter cells (SEAP)
T1 sequence (Q9NYK1 27-1049): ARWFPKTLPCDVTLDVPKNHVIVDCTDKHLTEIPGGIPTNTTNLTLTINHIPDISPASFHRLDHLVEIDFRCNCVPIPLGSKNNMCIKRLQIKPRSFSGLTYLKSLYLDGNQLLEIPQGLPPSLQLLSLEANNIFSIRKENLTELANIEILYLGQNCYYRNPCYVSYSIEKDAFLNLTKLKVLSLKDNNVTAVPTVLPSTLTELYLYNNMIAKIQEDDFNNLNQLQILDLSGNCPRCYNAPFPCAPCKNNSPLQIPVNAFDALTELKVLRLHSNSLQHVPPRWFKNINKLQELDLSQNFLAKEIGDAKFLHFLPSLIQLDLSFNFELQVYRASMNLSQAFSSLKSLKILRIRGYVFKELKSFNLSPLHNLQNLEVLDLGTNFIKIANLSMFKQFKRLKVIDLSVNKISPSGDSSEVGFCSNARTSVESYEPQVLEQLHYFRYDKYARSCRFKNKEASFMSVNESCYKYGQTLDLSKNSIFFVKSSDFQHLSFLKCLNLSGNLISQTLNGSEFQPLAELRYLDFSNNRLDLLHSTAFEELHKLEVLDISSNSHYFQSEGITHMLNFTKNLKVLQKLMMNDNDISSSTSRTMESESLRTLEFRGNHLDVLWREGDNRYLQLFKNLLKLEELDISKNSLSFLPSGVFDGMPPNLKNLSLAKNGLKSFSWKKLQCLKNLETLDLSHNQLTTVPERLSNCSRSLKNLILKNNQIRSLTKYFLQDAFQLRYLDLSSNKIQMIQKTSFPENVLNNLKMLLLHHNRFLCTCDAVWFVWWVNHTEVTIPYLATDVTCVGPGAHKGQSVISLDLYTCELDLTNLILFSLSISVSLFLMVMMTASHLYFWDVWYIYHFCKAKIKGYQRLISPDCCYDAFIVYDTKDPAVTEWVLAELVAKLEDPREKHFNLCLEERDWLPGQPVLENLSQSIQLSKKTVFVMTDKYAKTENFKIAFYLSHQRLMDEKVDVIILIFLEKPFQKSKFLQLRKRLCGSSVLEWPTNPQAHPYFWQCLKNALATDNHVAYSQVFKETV
Procedure: (§1) 3×10^4 HEK-Blue™ TLR7 or 3×10^4 TLR8 reporter cells (InvivoGen, San Diego, CA) were treated with titrated (4-fold) amounts of test compound. […] Cells were incubated overnight at 37° C. and 5% CO2, then absorbance (620 and 655 nm) was read on a Synergy™ H1 microplate reader.

PBMCs = experiment: PBMC assay, IL-6 release (HTRF); format: cell-based; conditions: PBMCs from healthy donors, overnight, IL-6 induction by HTRF, average of quadruplicate
Procedure: Whole peripheral blood was obtained from healthy donors. PBMCs were isolated from peripheral blood by density gradient centrifugation. […] The plasma layer containing PBMCs was poured into a new tube and washed twice. Isolated PBMCs were either used fresh or thawed from previously frozen. 1×10^5 PBMCs were cultured with titrating concentrations of compounds of Formula I overnight followed by assaying for cytokines by homogeneous time resolved fluorescence (HTRF).

TLR8 = target: T2, TLR8 (Homo sapiens, UniProt Q9NR97); experiment: Reporter gene assay, HEK-Blue TLR8 reporter cells (SEAP)
T2 sequence (Q9NR97 27-1041): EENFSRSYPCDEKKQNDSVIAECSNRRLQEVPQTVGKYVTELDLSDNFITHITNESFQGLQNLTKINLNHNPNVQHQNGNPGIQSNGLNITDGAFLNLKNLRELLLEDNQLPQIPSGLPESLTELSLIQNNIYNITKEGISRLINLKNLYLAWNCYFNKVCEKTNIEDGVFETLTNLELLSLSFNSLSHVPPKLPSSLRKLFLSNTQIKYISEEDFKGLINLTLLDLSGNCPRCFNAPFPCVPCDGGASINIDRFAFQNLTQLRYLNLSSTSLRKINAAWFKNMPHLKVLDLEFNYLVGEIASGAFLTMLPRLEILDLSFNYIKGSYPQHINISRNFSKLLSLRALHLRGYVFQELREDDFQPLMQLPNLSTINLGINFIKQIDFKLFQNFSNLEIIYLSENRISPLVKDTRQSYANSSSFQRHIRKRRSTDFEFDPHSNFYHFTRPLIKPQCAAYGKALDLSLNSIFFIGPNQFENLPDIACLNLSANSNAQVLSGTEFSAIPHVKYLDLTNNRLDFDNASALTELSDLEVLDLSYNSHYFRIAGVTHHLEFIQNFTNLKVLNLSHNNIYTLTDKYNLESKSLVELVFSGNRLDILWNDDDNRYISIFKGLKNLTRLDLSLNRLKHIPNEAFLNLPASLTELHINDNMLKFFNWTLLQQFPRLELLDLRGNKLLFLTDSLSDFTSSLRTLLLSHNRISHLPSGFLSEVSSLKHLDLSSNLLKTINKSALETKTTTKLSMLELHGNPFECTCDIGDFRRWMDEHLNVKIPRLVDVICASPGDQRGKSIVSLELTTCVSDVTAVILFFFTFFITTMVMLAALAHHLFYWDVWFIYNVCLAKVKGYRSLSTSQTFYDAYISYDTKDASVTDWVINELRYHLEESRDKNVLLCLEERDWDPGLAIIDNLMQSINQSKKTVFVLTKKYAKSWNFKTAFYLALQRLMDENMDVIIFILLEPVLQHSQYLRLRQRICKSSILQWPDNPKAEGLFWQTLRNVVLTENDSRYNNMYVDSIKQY
Procedure: as §1

SMILES | EC50 (TLR7) [nM] | EC50 (PBMCs) [nM] | EC50 (TLR8) [nM]
CCCCc1nc2c(N)nc3ccsc3c2n1CCCCCNCc1ccc(CO)cc1 [Compound 179, (4-(((5-(4-amino-2-butyl-1H-imidazo[4,5-d]thieno[3,2-b]pyridin-1-yl)pentyl)amino)methyl)phenyl)methanol] | 12 | 76 | 260
CCCCc1nc2c(N)nc3ccsc3c2n1Cc1nc(CN2CCN(CCN3CCOCC3)CC2)cs1 [Compound 234, 2-butyl-1-((4-((4-(2-morpholinoethyl)piperazin-1-yl)methyl)thiazol-2-yl)methyl)-1H-imidazo[4,5-d]thieno[3,2-b]pyridin-4-amine] | 270 | > 1000 | > 1000
CCCCc1nc2c(N)nc3ccsc3c2n1Cc1ccc(CNCCCCNC(=O)OCc2ccccc2)cc1 [Compound 260, benzyl (4-((4-((4-amino-2-butyl-1H-imidazo[4,5-d]thieno[3,2-b]pyridin-1-yl)methyl)benzyl)amino)butyl)carbamate] | 89 | 719 | > 1000
CCCCc1nc2c(N)nc3ccsc3c2n1CCCCCNCC(C)(C)O [Compound 180, 1-((5-(4-amino-2-butyl-1H-imidazo[4,5-d]thieno[3,2-b]pyridin-1-yl)pentyl)amino)-2-methylpropan-2-ol] | 83 | 610 | > 1000
CCOCc1nc2c(N)nc3ccsc3c2n1Cc1ccc(CNCc2cc[nH]c2)cc1 [Compound 293, 1-(4-((((1H-pyrrol-3-yl)methyl)amino)methyl)benzyl)-2-(ethoxymethyl)-1H-imidazo [4,5-d]thieno[3,2-b]pyridin-4-amine] | 7 | – | > 1000
CCCCc1nc2c(N)nc3ccsc3c2n1Cc1ccc(CNCCCC[C@H](N)C(=O)O)cc1 [Compound 305, N^6-(4-((4-amino-2-butyl-1H-imidazo[4,5-d]thieno[3,2-b]pyridin-1-yl)methyl)benzyl)-L-lysine] | 108 | – | > 1000
CCOCc1nc2c(N)nc3ccsc3c2n1Cc1ccc(CN(CC)CC)cc1 [Compound 290, 1-(4-((diethylamino)methyl)benzyl)-2-(ethoxymethyl)-1H-imidazo[4,5-d]thieno[3,2-b]pyridin-4-amine] | 4 | – | 1030
CCCCc1nc2c(N)nc3ccsc3c2n1Cc1ccc(C[n+]2ccccc2)cc1 [Compound 279, 1-(4-((4-amino-2-butyl-1H-imidazo[4,5-d]thieno[3,2-b]pyridin-1-yl)methyl)benzyl) pyridin-1-ium] | < 1 | – | > 1000
CCCCc1nc2c(N)nc3ccsc3c2n1Cc1ccc(CN2CCC[C@H]2C(=O)O)cc1 [Compound 300, (4-((4-amino-2-butyl-1H-imidazo[4,5-d]thieno[3,2-b]pyridin-1-yl)methyl)benzyl)-L-proline] | > 1000 | – | > 1000
CCCCc1nc2c(N)nc3ccsc3c2n1Cc1ccc(CN(CC(=O)O)CC(=O)O)cc1 [Compound 299, 2,2′-((4-((4-amino-2-butyl-1H-imidazo[4,5-d]thieno[3,2-b]pyridin-1-yl)methyl)benzyl)azanediyl)diacetic acid] | 446 | – | > 1000
CCCCc1nc2c(N)nc3ccsc3c2n1Cc1ccc(CNCCC(=O)N[C@@H](Cc2cnc[nH]2)C(=O)O)cc1 [Compound 301, (3-((4-((4-amino-2-butyl-1H-imidazo[4,5-d]thieno[3,2-b]pyridin-1-yl)methyl)benzyl)amino)propanoyl)-L-histidine] | 348 | – | > 1000
CCCCc1nc2c(N)nc3ccsc3c2n1Cc1ccc(CN[C@H](C(=O)O)[C@@H](C)O)cc1 [Compound 298, (4-((4-amino-2-butyl-1H-imidazo[4,5-d]thieno[3,2-b]pyridin-1-yl)methyl)benzyl)-L-threonine] | 159 | – | > 1000
CCCCc1nc2c(N)nc3ccsc3c2n1Cc1ccc(CN(CCC)CCC)cc1 [Compound 277, 2-butyl-1-(4-((dipropylamino)methyl)benzyl)-1H-imidazo[4,5-d]thieno[3,2-b]pyridin-4-amine] | < 1 | – | 404
CCCCc1nc2c(N)nc3ccsc3c2n1Cc1ccc(CN[C@H](C(=O)O)[C@@H](C)CC)cc1 [Compound 297, (4-((4-amino-2-butyl-1H-imidazo[4,5-d]thieno[3,2-b]pyridin-1-yl)methyl)benzyl)-L-isoleucine] | 676 | – | > 1000
CCOCc1nc2c(N)nc3ccsc3c2n1Cc1ccc(CNC2CC(F)(F)C2)cc1 [Compound 291, 1-(4-(((3,3-difluorocyclobutyl)amino)methyl)benzyl)-2-(ethoxymethyl)-1H-imidazo[4,5-d]thieno[3,2-b]pyridin-4-amine] | 14 | – | 1130
CCOCc1nc2c(N)nc3ccsc3c2n1Cc1ccc(CN[C@H](CO)[C@@H](C)CC)cc1 [Compound 292, (2S,3S)-2-((4-((4-amino-2-(ethoxymethyl)-1H-imidazo[4,5-d]thieno[3,2-b]pyridin-1-yl)methyl)benzyl)amino)-3-methylpentan-1-ol] | 3 | – | 674
CCOCc1nc2c(N)nc3ccsc3c2n1Cc1ccc(CN2CCNCC2)cc1 [Compound 289, 2-(ethoxymethyl)-1-(4-(piperazin-1-ylmethyl)benzyl)-1H-imidazo[4,5-d]thieno[3,2-b]pyridin-4-amine] | 9 | – | > 1000
CCCCc1nc2c(N)nc3ccsc3c2n1Cc1ccc(CN[C@H](CO)[C@@H](C)CC)cc1 [Compound 296, (2S,3S)-2-((4-((4-amino-2-butyl-1H-imidazo[4,5-d]thieno[3,2-b]pyridin-1-yl)methyl)benzyl)amino)-3-methylpentan-1-ol] | < 1 | – | 134
CCCCc1nc2c(N)nc3ccsc3c2n1Cc1ccc(CN2CCN(CCc3ccccn3)CC2)cc1 [Compound 275, 2-butyl-1-(4-((4-(2-(pyridin-2-yl)ethyl)piperazin-1-yl)methyl)benzyl)-1H-imidazo[4,5-d]thieno[3,2-b]pyridin-4-amine] | > 1000 | – | > 1000
CCCCc1nc2c(N)nc3ccsc3c2n1Cc1ccc(C[N+]23CCN(CC2)CC3)cc1 [Compound 295, 1-(4-((4-amino-2-butyl-1H-imidazo[4,5-d]thieno[3,2-b]pyridin-1-yl)methyl)benzyl)-1,4-diazabicyclo[2.2.2]octan-1-ium] | > 1000 | – | > 1000
CCCCc1nc2c(N)nc3ccsc3c2n1Cc1ccc(CNc2nnc[nH]2)cc1 [Compound 272, 1-(4-(((4H-1,2,4-triazol-3-yl)amino)methyl)benzyl)-2-butyl-1H-imidazo[4,5-d]thieno [3,2-b]pyridin-4-amine] | 33 | – | > 1000
